Data on one compound can be found in patent US11213499B1, “Use of 3,3′-diselenodipropionic acid (DSePA) as an anticancer agent” (Secretary, Department of Atomic Energy, priority 2020, dated 2022).

Molecules are shown by their SMILES. Like-named read-outs stand apart in the source and are kept apart here.

The experiment relates to A549 (Human non-small cell lung adenocarcinoma). Kind of experiment: SRB/MTT anti-proliferative assay, A549. Type of experiment: cell-based. The settings on record: 48 hours treatment, read-out: GI50 (Concentration of drug causing 50% inhibition of cell growth). The method, then:
The anticancer effect of DSePA was evaluated using a panel of twenty-five human cancer cell lines of different tissue origins. Cells were treated with the increasing concentrations (0.1-100 μM) of DSePA for 48 h and viability was monitored by (Sulforhodamine B) SRB assay or MTT assay.
Cell culture and DSePA synthesis—DSePA was synthesized and characterized as described in our previous reports. Cell lines were cultured in growth medium (DMEM/RPMI) supplemented with 10% FBS, 100 U/ml penicillin and 100 μg/ml streptomycin at 37° C. in a humidified 5% CO2 environment. The stock solution of DSePA was prepared fresh in cell culture medium and diluted with the same to achieve the desired concentrations.
SRB/MTT Assay—To evaluate the anti-proliferative effect of DSePA, Cells (˜5×10^3) suspended in 100 μl of complete culture medium were seeded in each well of 96 well plates. The cells were allowed to attach and grow for 24 h, treated with desired concentrations of DSePA dissolved in culture medium for 48 h and then processed for SRB/MTT assay as described in literature. The percentage (%) cytotoxicity was calculated from the decrease in absorbance as compared to that of control group.
For orientation: Formazan colour is commonly taken as a measure of viable cells.

Consider `O=C(O)CC[Se][Se]CCC(=O)O` [DSePA, 3,3′-diselenodipropionic acid], for which the GI50 amounted to 10 µM. The GI50 (Homo sapiens, A549, 48 h) is at most 10 µM.
